Experiments:
Format in all cases: in vivo
[1] = test system: Alopecurus myosuroides (ALOMY); test: Herbicidal pre-emergence action (A), 1280 g/ha; conditions: visual grading after ca. 3 weeks vs untreated controls, 100% = plants have died off, 0% = as control plants
Method in brief: (§1)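 Pre-emergence greenhouse test: seeds sown in sandy loam pots, WP or EC formulations sprayed onto covering soil as aqueous suspension/emulsion with 0.5% additive at 600 l water/ha. Damage graded visually after ca. 3 weeks versus untreated controls, 0% = as control, 100% = plants dead.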

[2] = test system: Amaranthus retroflexus (AMARE); test: Herbicidal pre-emergence action (A), 1280 g/ha; conditions: visual grading after ca. 3 weeks vs untreated controls
Method in brief: as §1

[3] = test system: Echinochloa crus-galli (ECHCG); test: Herbicidal pre-emergence action (A), 1280 g/ha; conditions: visual grading after ca. 3 weeks vs untreated controls, 100% = plants have died off, 0% = as control plants
Method in brief: as §1

[4] = test system: Kochia scoparia (KCHSC; Bassia scoparia); test: Herbicidal pre-emergence action (A), 1280 g/ha; conditions: visual grading after ca. 3 weeks vs untreated controls
Method in brief: as §1

Lolium rigidum (LOLRI) [5] = test: Herbicidal pre-emergence action (A), 1280 g/ha; conditions: visual grading after ca. 3 weeks vs untreated controls, 100% = plants have died off, 0% = as control plants
Method in brief: as §1

[6] = test system: Matricaria inodora (MATIN); test: Herbicidal pre-emergence action (A), 1280 g/ha; conditions: visual grading after ca. 3 weeks vs untreated controls
Method in brief: as §1

Poa annua (POAAN) [7] = test: Herbicidal pre-emergence action (A), 1280 g/ha; conditions: visual grading after ca. 3 weeks vs untreated controls, 100% = plants have died off, 0% = as control plants
Method in brief: as §1

Setaria viridis (SETVI) [8] = test: Herbicidal pre-emergence action (A), 1280 g/ha; conditions: visual grading after ca. 3 weeks vs untreated controls
Method in brief: as §1

Stellaria media (STEME) [9] = test: Herbicidal pre-emergence action (A), 1280 g/ha; conditions: visual grading after ca. 3 weeks vs untreated controls
Method in brief: as §1

Veronica persica (VERPE) [10] = test: Herbicidal pre-emergence action (A), 1280 g/ha; conditions: visual grading after ca. 3 weeks vs untreated controls
Method in brief: as §1

[11] = test system: Alopecurus myosuroides (ALOMY); test: Herbicidal post-emergence action (B), 1280 g/ha; conditions: rated visually after about 3 weeks vs untreated controls
Method in brief: (§2)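 Post-emergence greenhouse test: weeds in sandy loam treated at the one-leaf stage, 2 to 3 weeks after sowing, with WP or EC formulations plus 0.5% additive at 600 l/ha water. Visual activity versus untreated controls after about 3 weeks (100% = dead, 0% = like control).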

[12] = test system: Amaranthus retroflexus (AMARE); test: Herbicidal post-emergence action (B), 1280 g/ha; conditions: rated visually after about 3 weeks vs untreated controls
Method in brief: as §2

[13] = test system: Kochia scoparia (KCHSC; Bassia scoparia); test: Herbicidal post-emergence action (B), 1280 g/ha
Method in brief: as §2

[14] = test system: Matricaria inodora (MATIN); test: Herbicidal post-emergence action (B), 1280 g/ha; conditions: rated visually after about 3 weeks vs untreated controls
Method in brief: as §2

Poa annua (POAAN) [15] = test: Herbicidal post-emergence action (B), 1280 g/ha; conditions: rated visually after about 3 weeks vs untreated controls
Method in brief: as §2

Veronica persica (VERPE) [16] = test: Herbicidal post-emergence action (B), 1280 g/ha
Method in brief: as §2

[17] = test system: Alopecurus myosuroides (ALOMY); test: Herbicidal pre-emergence action (C), 320 g/ha; conditions: ca. 3 weeks
From the text: (§3) ABUTH: Abutilon theophrasti AGSTE: Agrostis tenuis ALOMY: Alopecurus myosuroides AMARE Amaranthus retroflexus DIGSA: Digitaria sanguinalis ECHCG: Echinochloa crus-galli KCHSC: Kochia scoparia LOLRI: Lolium rigidum MATIN: Matricaria inodora POAAN: Poa annua POLCO: Polygonum convolvulus SETVI: Setaria viridis STEME: Stellaria media VERPE: Veronica persica VIOTR: Viola tricolor
(§4) Seeds of mono- and dicotyledonous weed plants and crop plants were sown, in plastic or organic planting pots, in sandy loam and covered with soil. The compounds according to the invention, formulated in the form of wettable powders (WP) or as emulsifiable concentrates (EC), were applied to the surface of the covering soil as aqueous suspension or emulsion, with the addition of 0.5% of an additive, at an application rate of 600 l of water/ha (converted).
(§5) Following treatment, the pots were placed in a greenhouse and kept under optimum growth conditions for the test plants. The visual grading of the damage to the test plants was carried out after ca. 3 weeks in comparison to untreated controls (herbicidal effect in percent (%): 100% effect=plants have died off, 0% effect=as control plants).
(§6) Tables C1 to C13 below show the effects of selected compounds of the general formula (I) according to table 1 on various harmful plants and an application rate corresponding to 320 g/ha obtained by the experimental procedure mentioned above.

[18] = test system: Amaranthus retroflexus (AMARE); test: Herbicidal pre-emergence action (C), 320 g/ha; conditions: ca. 3 weeks
From the text: as §3, §4, §5, §6

[19] = test system: Echinochloa crus-galli (ECHCG); test: Herbicidal pre-emergence action (C), 320 g/ha; conditions: ca. 3 weeks
From the text: as §3, §4, §5, §6

Lolium rigidum (LOLRI) [20] = test: Herbicidal pre-emergence action (C), 320 g/ha; conditions: ca. 3 weeks
From the text: as §3, §4, §5, §6

[21] = test system: Matricaria inodora (MATIN); test: Herbicidal pre-emergence action (C), 320 g/ha; conditions: ca. 3 weeks
From the text: as §3, §4, §5, §6

Setaria viridis (SETVI) [22] = test: Herbicidal pre-emergence action (C), 320 g/ha; conditions: ca. 3 weeks
From the text: as §3, §4, §5, §6

Veronica persica (VERPE) [23] = test: Herbicidal pre-emergence action (C), 320 g/ha; conditions: ca. 3 weeks
From the text: as §3, §4, §5, §6

[24] = test system: Echinochloa crus-galli (ECHCG); test: Herbicidal post-emergence action (D), 320 g/ha; conditions: ca. 3 weeks
From the text: as §3
(§7) Seeds of mono- and dicotyledonous weed plants and crop plants were sown, in plastic or organic planting pots, in sandy loam, covered with soil and grown in a greenhouse under controlled growth conditions. 2 to 3 weeks after sowing, the test plants were sprayed in the single-leaf stage. The compounds according to the invention, formulated in form of wettable powders (WP) or as emulsifiable concentrates (EC), were sprayed onto the green plant parts as aqueous suspension or emulsion, with the addition of 0.5% of an additive, at an application rate of 600 l of water/ha (converted). The test plants were placed in the greenhouse for ca. 3 weeks under optimum growth conditions, and then the effect of the preparations was assessed visually in comparison with untreated controls (herbicidal effect in percent (%): 100% effect=plants have died off, 0% effect=as control plants).
(§8) Tables D1 to D13 below show the effects of selected compounds of the general formula (I) according to table 1 on various harmful plants and an application rate corresponding to 320 g/ha obtained by the experimental procedure mentioned above.

[25] = test system: Digitaria sanguinalis (DIGSA); test: Herbicidal pre-emergence action (A), 1280 g/ha; conditions: visual grading after ca. 3 weeks vs untreated controls, 100% = plants have died off, 0% = as control plants
Method in brief: as §1

[26] = test system: Digitaria sanguinalis (DIGSA); test: Herbicidal post-emergence action (B), 1280 g/ha; conditions: rated visually after about 3 weeks vs untreated controls
Method in brief: as §2

[27] = test system: Echinochloa crus-galli (ECHCG); test: Herbicidal post-emergence action (B), 1280 g/ha; conditions: rated visually after about 3 weeks vs untreated controls
Method in brief: as §2

Setaria viridis (SETVI) [28] = test: Herbicidal post-emergence action (B), 1280 g/ha; conditions: rated visually after about 3 weeks vs untreated controls
Method in brief: as §2

Stellaria media (STEME) [29] = test: Herbicidal post-emergence action (B), 1280 g/ha
Method in brief: as §2

[30] = test system: Amaranthus retroflexus (AMARE); test: Herbicidal post-emergence action (D), 320 g/ha; conditions: ca. 3 weeks
From the text: as §3, §7, §8

[31] = test system: Polygonum convolvulus (POLCO); test: Herbicidal post-emergence action (D), 320 g/ha; conditions: ca. 3 weeks
From the text: as §3, §7, §8

[32] = test system: Abutilon theophrasti (ABUTH); test: Herbicidal post-emergence action (B), 1280 g/ha; conditions: rated visually after about 3 weeks vs untreated controls
Method in brief: as §2

[33] = test system: Abutilon theophrasti (ABUTH); test: Herbicidal pre-emergence action (A), 1280 g/ha; conditions: visual grading after ca. 3 weeks vs untreated controls, 100% = plants have died off, 0% = as control plants
Method in brief: as §1

Setaria viridis (SETVI) [34] = test: Herbicidal post-emergence action (D), 320 g/ha; conditions: ca. 3 weeks
From the text: as §3, §7, §8

Veronica persica (VERPE) [35] = test: Herbicidal post-emergence action (D), 320 g/ha; conditions: ca. 3 weeks
From the text: as §3, §7, §8

Compound	ALOMY, herbicidal effect in percent (%) [1] [%]	herbicidal effect AMARE [2] [%]	ECHCG, herbicidal effect in percent (%) [3] [%]	herbicidal effect KCHSC [4] [%]	LOLRI, herbicidal effect in percent (%) (Lolium rigidum (LOLRI) [5])	herbicidal effect MATIN [6] [%]	POAAN, herbicidal effect in percent (%) (Poa annua (POAAN) [7])	herbicidal effect SETVI (Setaria viridis (SETVI) [8]) [%]	herbicidal effect STEME (Stellaria media (STEME) [9]) [%]	herbicidal effect VERPE (Veronica persica (VERPE) [10]) [%]	herbicidal activity ALOMY [11] [%]	herbicidal activity AMARE [12] [%]	herbicidal effect KCHSC [13] [%]	herbicidal activity MATIN [14] [%]	herbicidal effect VERPE (Veronica persica (VERPE) [16]) [%]	herbicidal effect ALOMY [17] [%]	herbicidal effect ECHCG [19] [%]	herbicidal effect LOLRI (Lolium rigidum (LOLRI) [20]) [%]	herbicidal effect SETVI (Setaria viridis (SETVI) [22]) [%]	herbicidal effect STEME (Stellaria media (STEME) [29]) [%]	also measured
Cc1sccc1-c1nc2ncsc2cc1Br [Example I-135]	90	90	100	90	100	100	100	100	90	90	90	90	90	90	90	100	100	100	100	–	herbicidal activity POAAN (Poa annua (POAAN) [15]): 90%; herbicidal effect AMARE [18]: 90%; herbicidal effect MATIN [21]: 80%; herbicidal effect VERPE (Veronica persica (VERPE) [23]): 80%; herbicidal effect ECHCG [24]: 80%
C=Cc1cc2scnc2nc1-c1ccccc1F [Example I-072]	100	100	100	100	100	100	100	100	90	100	100	100	90	90	100	100	100	100	100	90	DIGSA, herbicidal effect in percent (%) [25]: 100%; herbicidal activity DIGSA [26]: 90%; herbicidal activity ECHCG [27]: 90%; herbicidal activity POAAN (Poa annua (POAAN) [15]): 100%; herbicidal activity SETVI (Setaria viridis (SETVI) [28]): 90%; herbicidal effect AMARE [18]: 80%; herbicidal effect VERPE (Veronica persica (VERPE) [23]): 80%; herbicidal effect AMARE [30]: 80%; herbicidal effect POLCO [31]: 80%
COc1ccccc1-c1nc2nc(SC)sc2cc1C [Example I-007]	–	–	–	–	–	–	90	100	–	–	–	100	90	100	90	–	–	–	–	100	herbicidal activity ABUTH [32]: 90%; herbicidal activity DIGSA [26]: 100%
Cc1cc2scnc2nc1-c1ccccc1C(F)(F)F [Example I-064]	–	100	100	100	100	–	100	100	100	90	–	–	100	100	90	–	–	–	–	100	ABUTH, herbicidal effect in percent (%) [33]: 90%; DIGSA, herbicidal effect in percent (%) [25]: 100%
CCCc1cc2scnc2nc1-c1ccccc1F [Example I-185]	–	–	100	90	100	90	100	–	90	90	–	100	90	–	90	90	100	100	100	–	herbicidal activity ECHCG [27]: 90%; herbicidal activity SETVI (Setaria viridis (SETVI) [28]): 90%; herbicidal effect ECHCG [24]: 80%; herbicidal effect POLCO [31]: 80%; herbicidal effect SETVI (Setaria viridis (SETVI) [34]): 90%; herbicidal effect VERPE (Veronica persica (VERPE) [35]): 90%

Reference: patent US20230151025A1, “SUBSTITUTED THIAZOLOPYRIDINES, SALTS THEREOF AND THEIR USE AS HERBICIDALLY ACTIVE SUBSTANCES” (Bayer Aktiengesellschaft, priority 2020, published 2023)
